Measurements published in patent US20180206529A1, “FAST-DISSOLVING, CO-CRYSTALLINE FORMS OF SODIUM CHLORIDE” (NESTEC S.A., priority 2015, published 2018).

Experiments:
Assay type in all cases: physicochemical
[1] = Glucose NaCl kinetics of dissolution via refractometry; details: 60 mL of water, stirring, particle size 100-200 μm, average of three experiments
Description: The (Glucose)2⋅NaCl⋅H2O co-crystals of Example 3 were tested for their dissolution behavior by refractometry. The equipment used was a RFM300+ refractometer by Bellingham and Stanley. The test samples were added to 60 mL of water, and the dissolution was measured under stirring at 50 rpm using a refractometer with one measurement/second for […]. Every dissolution experiment was performed three times and the average value was calculated. The particle size was 100-200 μm.

[2] = Dissolution kinetics via microscopic analysis (video-microscopy of one individual crystal in water); details: 100-200 μm, fully immersed in 10 μL of water
Description: One individual crystal of sodium chloride, Glucose monohydrate, anhydrous Glucose and of (Glucose)2⋅NaCl⋅H2O co-crystal prepared according to the method of Example 3 was tested for its dissolution behavior by microscope. The analysis was performed in analogy to the method described by Quilaqueo et al. (“Dissolution of NaCl crystals in artificial saliva and water by video-microscopy”, Food Research International 69, 2015, p. 373-380).
A digital microscope was used to perform video-microscopy on the co-crystals and their respective individual components. Crystal size in general ranged between 100-200 μm. Images were recorded on a DFC450 digital microscope from Leica Microsystems with a high quality 5 Megapixel CCD sensor. The light intensity and contrast were controlled by using a VH-K20 Variable Illumination. The software used to record and analyze the video images was provided by the supplier of the module Leica LAS MultiTime.
One individual crystal specimen of sufficient quality and crystallinity was fixed on the microscope table using double-face adhesive tape. The crystal was fully immersed in 10 μL of water and the video recorded in parallel. The recording was dissected into individual film stills and the remaining crystalline area was determined until complete dissolution occurred using the respective software.
Applying this methodology, a first order kinetic was used to interpret the result:
Where At is the area (μm^2) of the remaining solid crystal at a time t (in seconds), A0 is the initial area (μm^2) of the crystal, t is the time (s) and k is the constant (s^−1).

[3] = Dissolution kinetics via refractometry for the system sucrose/sodium chloride; details: 60 mL of water, room temperature, constant stirring, particle size 63-100 μm
Description: Changes in refraction of the solution were measured at room temperature while adding a defined amount of solid material to the solvent (60 mL of water) under constant stirring. The equipment used is composed of a magnetic stirrer and a digital refractive index probe (Fiso technologies) capable of constant measurement. Once the powder is added, refractive indices are recorded as a function of time. This technique was used to compare the dissolution behavior of the sucrose⋅NaCl⋅H2O co-crystal with its pure individual components as well as the physical mixture of the two pure ingredients. The particle size of all solids was standardized to be in between 63-100 μm.
Quantities Used for the Measurements:
Sucrose⋅NaCl⋅H2O co-crystal 2.00 g

Compound	10% dissolution reached at [1]	50% dissolution reached at [1]	90% dissolution reached at [1]	90% dissolution reached at ([1]; listed as (Glucose)2⋅NaCl⋅H2O)	90% dissolution reached at ([1]; listed as (Glucose)2⋅NaCl⋅H2O co-crystals)	k, constant of first order dissolution kinetic (crystal area over time) [2]	dissolution speed (normalized refractive index versus time, FIG. 7) [3]
O.OC[C@H]1O[C@H](O)[C@H](O)[C@@H](O)[C@@H]1O.OC[C@H]1O[C@H](O)[C@H](O)[C@@H](O)[C@@H]1O.[Cl-].[Na+] [(Glucose)2•NaCl•H2O co-crystal, (α-D-Glucose)2⋅NaCl⋅H2O]	6 s	11 s	25 s	25 s	≤ 25 s	0.19 s⁻¹	
O.OC[C@H]1O[C@H](O)[C@H](O)[C@@H](O)[C@@H]1O [Glucose monohydrate, alpha-D-(+)-Glucose monohydrate]	6 s	51 s	214 s			0.08 s⁻¹	
O.O.OCC1OC(OC2(CO)OC(CO)C(O)C2O)C(O)C(O)C1O.[Cl-].[Na+] (stereo not drawn) [sucrose⋅NaCl⋅H2O co-crystal, Sucrose⋅NaCl⋅2 H2O]							dissolved almost as fast
[Cl-].[Na+] [NaCl, sodium chloride]	4 s	8 s	29 s			0.21 s⁻¹	dissolves the fastest
OC[C@H]1O[C@@](CO)(O[C@H]2O[C@H](CO)[C@@H](O)[C@H](O)[C@H]2O)[C@@H](O)[C@@H]1O [Pure sucrose, (D)-(+)-Sucrose]							dissolves much slower
OC[C@H]1OC(O)[C@H](O)[C@@H](O)[C@@H]1O (stereo partly drawn) [Anhydrous Glucose]	6 s	17 s	289 s			0.14 s⁻¹	
